Values quoted from earlier work in patent publication US11839662B2, “Compositions for neuromodulation of mosquito feeding behavior and uses thereof” (University of Central Florida Research Foundation, Inc., priority 2017, dated 2023).

SMILES	repellant and larvicidal effect (mosquitoes)	effect on oviposition and larval hatch rate (Anopheles gambiae)
CC1(C)CCC[C@]2(C)[C@@H](C=O)C(C=O)=CC[C@@H]12 [Polygodial]	repellant ability in mosquitoes and act as a larvacide	
Clc1cccc(Cl)c1N=C1NCCN1 [Clonidine]		decrease oviposition and larval hatch rate
